Reference: patent US10502741B2, “Means and methods for detecting activated MALT1” (Helmholtz Zentrum München Deutsches Forschungszentrum für …, priority 2014, dated 2019)
Primed or numbered codes have the meaning given here. The star is where a group is joined. FITC = O=C1OC2(c3ccc(O)cc3Oc3cc(O)ccc32)c2ccc(NC(=S)*)cc21; AOMK = acyloxymethyl ketone C-terminal warhead; AOMK″ = acyloxymethyl ketone; BODIPY = not defined here

Legend:
[1] = target: T1, active MALT1 (Homo sapiens, UniProt Q9UDY8); experiment: Labeling with diagnostic inhibitor in cell extracts (gel-based, fluorescence scan): active MALT1 band; settings: for selectivity / background of probe labeling in extracts: Jurkat T cell extracts; for detection of endogenous active MALT1-probe complexes: Jurkat T cells stimulated or not, whole cell lysates; for effect of inhibitor pretreatment on probe 5 labeling of active MALT1: Jurkat T cells, 10 μM inhibitor before stimulation
T1 construct: endogenous in cells; host or cells: Jurkat T cells, primary human PBMCs and T cells, DLBCL cell lines (HBL1, TMD8, OCI-Ly3, OCI-Ly10, U2932, RIVA, BJAB, Su-DHL-4, Su-DHL-6)
T1 sequence (Q9UDY8 1-824): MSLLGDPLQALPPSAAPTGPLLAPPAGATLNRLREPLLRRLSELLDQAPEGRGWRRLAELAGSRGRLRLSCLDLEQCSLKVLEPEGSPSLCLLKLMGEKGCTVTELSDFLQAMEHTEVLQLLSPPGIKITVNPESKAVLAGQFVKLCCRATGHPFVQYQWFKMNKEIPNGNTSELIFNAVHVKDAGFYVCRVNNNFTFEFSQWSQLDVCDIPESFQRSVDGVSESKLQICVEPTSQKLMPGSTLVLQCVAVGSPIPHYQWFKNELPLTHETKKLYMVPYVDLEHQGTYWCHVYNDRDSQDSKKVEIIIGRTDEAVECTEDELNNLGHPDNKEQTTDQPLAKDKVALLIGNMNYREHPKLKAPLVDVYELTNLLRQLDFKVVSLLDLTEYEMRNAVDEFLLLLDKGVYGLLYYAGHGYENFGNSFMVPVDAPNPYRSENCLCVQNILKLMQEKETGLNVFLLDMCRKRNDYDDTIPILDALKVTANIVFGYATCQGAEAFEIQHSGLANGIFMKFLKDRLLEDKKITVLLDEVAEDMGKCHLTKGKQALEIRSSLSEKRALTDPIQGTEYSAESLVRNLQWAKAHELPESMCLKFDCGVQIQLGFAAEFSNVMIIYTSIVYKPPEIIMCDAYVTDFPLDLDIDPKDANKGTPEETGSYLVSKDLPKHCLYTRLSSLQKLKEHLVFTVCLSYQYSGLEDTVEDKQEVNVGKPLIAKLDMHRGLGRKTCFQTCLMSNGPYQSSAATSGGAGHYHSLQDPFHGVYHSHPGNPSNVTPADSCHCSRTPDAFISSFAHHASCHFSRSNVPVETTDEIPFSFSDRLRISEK
Procedure: (§1) Jurkat T cells were cultured in standard RPMI medium containing 10% FCS, 100 U/ml Penicillin/Streptomycin and 2 mM Glutamin. DNA transfection of 6 μg DNA in 8×10^6 Jurkat T cells was performed by electroporation in a GenePulser Xcell (BioRad) with a 220 Volt pulse. For siRNA experiments, Jurkat T cells were transfected with 100 nM siRNA and Atufect transfection reagent (Silence Therapeutics, Berlin). Jurkat T cells were stimulated either with 200 ng/ml PMA (phorbol 12-myristate 13-acetate) and 300 ng/ml Ionomycin (both Calbiochem) or CD3/CD28 antibody co-ligation (human CD3: 1 μg/ml; human CD28: 4 μg/ml; mouse IgG1: 2 μg/ml; mouse IgG2a: 2 μg/ml; BD Biosciences). DLBCL cell lines (HBL1, TMD8, OCI-Ly3, U2932, RIVA, BJAB, Su-DHL-4 and Su-DHL-6) were cultured in standard RPMI medium containing 20% FCS, 100 U/ml Penicillin/Streptomycin and 2 mM Glutamin. OCI-Ly10 cell line was cultured in IMDM containing 20% human serum, 100 U/ml Penicillin/Streptomycin, 2 U/ml heparine, 50 μM β-mercaptoethanol. Inhibitors 10 μM (z-VRPR-FMK, Mepazine, Thioridazine, CA-074Me) were added to the cells in media for 1 h, prior to stimulation and labeling with diagnostic MALT1 inhibitor.
(§2) Jurkat T cells (1-2×10^7), primary human PBMCs or primary human T cells (0.25 or 1×10^7) were lysed in 150 μl co-IP buffer without protease inhibitors. DLBCL (3×10^7) were lysed in 250 μl buffer. After centrifugation (14000 rpm, 10 min, 4° C.), 100 μl extract (DLBCL: 200 μl) was stained with probe 5 or probe 6 (3 μM end) for 50 min at 29° C., mixed with 4× loading dye and boiled.

[2] = target: T2, MALT1 (Homo sapiens, UniProt Q9UDY8); experiment: MALT1 in vitro cleavage assay using fluorescent substrate; type: biochemical
T2 construct: GST
T2 sequence (Q9UDY8 1-824): T1 sequence (Q9UDY8 1-824)
Procedure: (§3) C) Impact of indicated compounds on MALT1, Caspase8 and cathepsin B was tested in in vitro cleavage assays using fluorescent substrates. Results and SD from three independent experiments are shown.
Preferably, MALT1 activity is determined in a MALT1 cleavage assay. […] The assay may be performed in cleavage buffer comprising for example 50 mM MES, 1 M sodium citrate pH 7, 150 mM NaCl, 10% sucrose, 0.1% chaps, 10 mM DTT. Catalytically active MALT1 cleaves the substrate and an increase of AMC fluorescence can be measured.

[3] = target: T3, cathepsin B (Homo sapiens, UniProt P07858); experiment: Cathepsin B cleavage assay (zRR-AMC substrate); type: biochemical; set-up: purchased BioVision; settings: 0.2 ng cathepsin B, 1 mM zRR-AMC, 2 h at 30° C.
Procedure: as §3
0.2 ng cathepsin B together with probe 5, z-VRPR-FMK (SEQ ID No. 6), mepazine or CA-074 was incubated with 1 mM zRR-AMC substrate for 2 h at 30° C. Assay was performed in 0.1 M sodium acetate pH 5.5, 10 mM DTT and 0.1 mM EDTA. Again, increase of AMC fluorescence is measured in a Synergy 2 Microplate Reader (Biotek).

[4] = target: T1, active MALT1; experiment: ELISA-based assay (MALT1 ELASA) on streptavidin-coated plates with MALT1 antibody detection; type: cell-based; settings: for effect of inhibitor on active MALT1 signal in DLBCL cells: inhibitor-treated (10 μM) DLBCL cells
Procedure: as §1
Untreated DLBCL (1×10^7), primary T cells (0.25×10^7) or Jurkat T cells (0.2-1×10^7) (stimulated or not) were lysed in 300 μl co-IP buffer without protease inhibitors, centrifuged, incubated with probe 7 (concentration as depicted) for 1 h at RT, then transferred to streptavidin-coated plates (96 well, clear) and incubated o/n at 4° C. After blocking with 2% BSA in PBS-T, detection was performed by incubation with MALT1 primary antibody (1 h, RT) and HRP-coupled secondary antibody (1 h, RT). […] was determined after TMB substrate incubation in a photometer (Bio-Tek).

[5] = target: T1, active MALT1; experiment: Probe 7-pulldown with streptavidin beads and western blot; type: cell-based
Procedure: as §1
Untreated DLBCL (1-2×10^7) or Jurkat T cells (stimulated with PMA/Ionomycin or CD3/28 or left untreated; 1-2×10^7), were lysed in 500 μl co-IP buffer without protease inhibitors, centrifuged, incubated with probe 7 (concentration as depicted) for 1 h at RT then incubated with streptavidin beads for 2 h at 4° C. Precipitate was washed, analysed by SDS-PAGE and western blot.

[6] = target: T3, cathepsin B; experiment: Labeling with diagnostic inhibitor in cell extracts (gel-based, fluorescence scan): about 30 kDa cathepsin B band; set-up: endogenous in cells; host or cells: Jurkat T cells; HBL1 and other DLBCL cell lines; settings: for effect of inhibitor pretreatment on the band below 34 kDa (cathepsin B) labeled by probe 5: Jurkat T cells, 10 μM inhibitor
Procedure: as §1, §2

[7] = HBL1 cells, inhibitors 10 μM each

## FITC-LRSR-AOMK ({FITC}-LRSR-{AOMK}) [probe 5]
[1]; ABC DLBCL cells (HBL1 for probe 6)
  active MALT1 signal in lymphoma whole cell extracts: not detectable
[1]
  selectivity / background of probe labeling in extracts: MALT1 was the only inducible band
  detection of endogenous active MALT1-probe complexes: exclusively detected after T cell stimulation
[1]; extracts of P/I-stimulated PBMCs and human T cells
  detection of active MALT1 in primary cells: detected active MALT1
[2]
  inhibition of MALT1 protease activity in vitro: inhibit MALT1
[3]
  inhibition of cathepsin B activity in vitro: abrogated cathepsin B activity even though slightly less efficient

## CN1CCC[C@H](CN2c3ccccc3Sc3ccccc32)C1 [S-mepazine, 10-{[(3S)-1-methylpiperidin-3-yl]methyl}-10H-phenothiazine]
[4]; ABC DLBCL cell line OCI-Ly3, increasing concentrations
  cellular MALT1 inhibition, inhibitor profiling: slightly more potent
[4]; all ABC DLBCL cell lines
  concentrations at which MALT1 was inhibited: 0.3 to 10 µM

## BODIPY-ALVSR-AOMK ({BODIPY}-ALVSR-{AOMK″}; reading uncertain)
[1]
  selectivity / background of probe labeling in extracts: unspecific background labeling of unknown identity at approx. 40 kDa
  detection of endogenous active MALT1-probe complexes: exclusively detected after stimulation
[1]; extracts of stimulated Jurkat T cells
  effect of titrating probe concentration on labeling: decrease background labeling, while active MALT1 activity stays stable

## CN1CCCC(CN2c3ccccc3Sc3ccccc32)C1 (centres unmarked) [mepazine, 10-[(1-methylpiperidin-3-yl)methyl]-10H-phenothiazine]
[4]; probe 7
  effect of inhibitor on active MALT1 signal in DLBCL cells: strongly reduced
[5]; Jurkat T cells pretreated with 10 μM inhibitors, 0.1 μM probe 7
  effect of inhibitor on formation of MALT1-probe 7 complexes: blocked
[1]; [7]
  effect of inhibitor on probe 6 labeling of active MALT1: sensitivity
[1]
  effect of inhibitor pretreatment on probe 5 labeling of active MALT1: prevents binding of diagnostic MALT1-inhibitor
[3]
  inhibition of cathepsin B activity in vitro: neither the non-competitive MALT1 inhibitor mepazine, nor the irreversible cathepsin B specific inhibitor CA-074 showed any cross-inhibition
[6]
  effect of inhibitor pretreatment on the band below 34 kDa (cathepsin B) labeled by probe 5: unaffected

## C=CC(=O)N1CCC[C@@H](n2nc(-c3ccc(Oc4ccccc4)cc3)c3c(N)ncnc32)C1 [Ibrutinib]
[4]; 0.5 nM, ABC DLBCL cells
  reduction of MALT1 activity: 50-60%

## CCCNC(=O)[C@H]1O[C@@H]1C(=O)N[C@H](C(=O)N1CCC[C@H]1C(=O)OC)[C@@H](C)CC [CA-074Me]
[4]; probe 7
  effect of inhibitor on active MALT1 signal in DLBCL cells: resistant
[1]
  effect of inhibitor pretreatment on probe 5 labeling of active MALT1: inducible MALT1 labeling was unaffected
[6]; [7]
  effect of inhibitor on the about 30 kDa cathepsin B signal labeled by probe 6: sensitive
[6]
  effect of inhibitor pretreatment on the band below 34 kDa (cathepsin B) labeled by probe 5: completely abolished detection

## CCCNC(=O)[C@H]1O[C@@H]1C(=O)N[C@H](C(=O)N1CCC[C@H]1C(=O)O)[C@@H](C)CC [CA-074]
[2]
  inhibition of MALT1 protease activity in vitro: neither the non-competitive MALT1 inhibitor mepazine, nor the irreversible cathepsin B specific inhibitor CA-074 showed any cross-inhibition

## CSc1ccc2c(c1)N(CCC1CCCCN1C)c1ccccc1S2 (centres unmarked) [thioridazine, 10-[2-(1-methylpiperidin-2-yl)ethyl]-2-(methylthio)phenothiazine]
[1]
  effect of inhibitor pretreatment on probe 5 labeling of active MALT1: prevents binding of diagnostic MALT1-inhibitor
[6]
  effect of inhibitor pretreatment on the band below 34 kDa (cathepsin B) labeled by probe 5: unaffected

## Ac-Lys(biotin)-LRSR-AOMK [probe 7]
[4]; 2×10^6 Jurkat T cells stimulated or not
  probe concentration sufficient to obtain a robust increase in active MALT1: ≤ 10 nM
[4]; DLBCL cell lines, probe 7
  MALT1 activity in ABC versus GCB DLBCL cells, ELISA: significant increase in MALT1 activity in ABC DLBCL cells when compared to GCB DLBCL cells
[4]; Jurkat T cells, stimulated or not
  MALT1 binding to streptavidin-coated plates: only detected in P/I or CD3/CD28 stimulated Jurkat T cells
[4]; primary human T cells, 0.1 μM probe 7
  active MALT1 in stimulated primary T cells, ELISA: robust induction of active MALT1
[5]; Jurkat T cells, P/I stimulated or not
  detection of MALT1-probe 7 complexes after pulldown: exclusively detected in extracts of P/I stimulated Jurkat T cells
[5]; extracts of stimulated T cells, supernatant checked with probe 6
  probe concentration sufficient to completely remove active MALT1 from the extracts: 100 nM
[5]; untreated ABC and GCB DLBCL cells, western blot
  constitutively active MALT1 after pulldown in DLBCL cells: exclusively in ABC, but not in GCB DLBCL cells
